Active and inactive are the calls of the source. Cut-off read from the data, not from the text of the source, for most assays here: actives have a measured EC50 and inactives only a lower limit.
What was measured:
Protein RecA = molecular target: T1, Protein RecA (Mycobacterium tuberculosis, UniProt P9WHJ3); experiment: Fluorescence Cell-Free Homogeneous Dose Retest to Identify Inhibitors of RecA-Intein Splicing Activity. [Related pubchem assays (depositor defined):AID2097, AID2223, AID489010, AID492950]; format: functional
T1 sequence (P9WHJ3 whole entry): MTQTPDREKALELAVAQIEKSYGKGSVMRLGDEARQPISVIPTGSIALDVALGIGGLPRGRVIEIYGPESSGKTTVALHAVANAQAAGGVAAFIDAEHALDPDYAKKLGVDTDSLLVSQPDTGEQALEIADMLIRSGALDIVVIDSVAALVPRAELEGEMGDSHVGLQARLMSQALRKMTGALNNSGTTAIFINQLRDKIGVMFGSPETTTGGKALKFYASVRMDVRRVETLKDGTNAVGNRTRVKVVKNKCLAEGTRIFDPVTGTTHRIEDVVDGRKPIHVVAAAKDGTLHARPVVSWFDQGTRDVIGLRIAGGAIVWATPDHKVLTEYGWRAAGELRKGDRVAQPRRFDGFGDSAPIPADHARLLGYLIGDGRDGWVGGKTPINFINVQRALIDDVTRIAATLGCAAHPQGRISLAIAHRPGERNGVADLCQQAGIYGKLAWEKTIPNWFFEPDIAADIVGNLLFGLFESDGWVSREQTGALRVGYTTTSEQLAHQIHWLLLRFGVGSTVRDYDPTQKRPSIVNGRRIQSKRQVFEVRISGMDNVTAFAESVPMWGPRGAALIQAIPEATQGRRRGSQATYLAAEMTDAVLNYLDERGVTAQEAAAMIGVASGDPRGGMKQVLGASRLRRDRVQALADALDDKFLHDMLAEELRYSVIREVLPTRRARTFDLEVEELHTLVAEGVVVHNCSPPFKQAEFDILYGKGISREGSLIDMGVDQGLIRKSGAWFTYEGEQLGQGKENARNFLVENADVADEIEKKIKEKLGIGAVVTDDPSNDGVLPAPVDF

[1] = molecular target: T2, Replicative DNA helicase DnaB (Mycobacterium tuberculosis, UniProt P9WMR3); experiment: DnaB intein splicing inhibitors, dose response, biochemical, cell-free fluorescence (AID 449749); format: functional
T2 sequence (P9WMR3 whole entry): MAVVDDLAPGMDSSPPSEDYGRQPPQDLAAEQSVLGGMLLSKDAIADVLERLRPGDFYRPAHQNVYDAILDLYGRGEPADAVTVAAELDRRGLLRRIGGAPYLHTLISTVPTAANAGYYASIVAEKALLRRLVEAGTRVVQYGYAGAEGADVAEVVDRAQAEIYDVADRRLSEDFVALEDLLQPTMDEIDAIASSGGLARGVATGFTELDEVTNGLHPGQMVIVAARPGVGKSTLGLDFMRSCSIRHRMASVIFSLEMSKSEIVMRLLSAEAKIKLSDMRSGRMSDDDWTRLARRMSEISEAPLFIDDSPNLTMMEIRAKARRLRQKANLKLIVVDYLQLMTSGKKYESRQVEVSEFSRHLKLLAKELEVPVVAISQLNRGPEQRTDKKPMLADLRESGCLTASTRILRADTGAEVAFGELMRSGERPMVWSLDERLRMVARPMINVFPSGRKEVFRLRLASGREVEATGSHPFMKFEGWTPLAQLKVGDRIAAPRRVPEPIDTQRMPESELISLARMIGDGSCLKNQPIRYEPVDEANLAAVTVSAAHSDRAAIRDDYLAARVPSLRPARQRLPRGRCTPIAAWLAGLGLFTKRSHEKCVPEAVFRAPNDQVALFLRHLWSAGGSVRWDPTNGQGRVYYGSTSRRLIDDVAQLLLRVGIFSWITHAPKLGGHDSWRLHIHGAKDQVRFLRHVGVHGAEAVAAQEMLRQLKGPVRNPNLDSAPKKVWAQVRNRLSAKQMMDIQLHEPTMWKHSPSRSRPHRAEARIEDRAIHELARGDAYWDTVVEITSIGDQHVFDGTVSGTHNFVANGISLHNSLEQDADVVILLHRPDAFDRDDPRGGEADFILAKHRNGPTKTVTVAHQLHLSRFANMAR

Genome polyprotein = Genome polyprotein (dengue virus type 2, UniProt P29990); experiment: Dengue-2 NS5 methyltransferase inhibitors, primary screen, biochemical, confirmation dose response (AID 588689); format: functional
Chain of Genome polyprotein (P29990 2492-3391 limits assumed): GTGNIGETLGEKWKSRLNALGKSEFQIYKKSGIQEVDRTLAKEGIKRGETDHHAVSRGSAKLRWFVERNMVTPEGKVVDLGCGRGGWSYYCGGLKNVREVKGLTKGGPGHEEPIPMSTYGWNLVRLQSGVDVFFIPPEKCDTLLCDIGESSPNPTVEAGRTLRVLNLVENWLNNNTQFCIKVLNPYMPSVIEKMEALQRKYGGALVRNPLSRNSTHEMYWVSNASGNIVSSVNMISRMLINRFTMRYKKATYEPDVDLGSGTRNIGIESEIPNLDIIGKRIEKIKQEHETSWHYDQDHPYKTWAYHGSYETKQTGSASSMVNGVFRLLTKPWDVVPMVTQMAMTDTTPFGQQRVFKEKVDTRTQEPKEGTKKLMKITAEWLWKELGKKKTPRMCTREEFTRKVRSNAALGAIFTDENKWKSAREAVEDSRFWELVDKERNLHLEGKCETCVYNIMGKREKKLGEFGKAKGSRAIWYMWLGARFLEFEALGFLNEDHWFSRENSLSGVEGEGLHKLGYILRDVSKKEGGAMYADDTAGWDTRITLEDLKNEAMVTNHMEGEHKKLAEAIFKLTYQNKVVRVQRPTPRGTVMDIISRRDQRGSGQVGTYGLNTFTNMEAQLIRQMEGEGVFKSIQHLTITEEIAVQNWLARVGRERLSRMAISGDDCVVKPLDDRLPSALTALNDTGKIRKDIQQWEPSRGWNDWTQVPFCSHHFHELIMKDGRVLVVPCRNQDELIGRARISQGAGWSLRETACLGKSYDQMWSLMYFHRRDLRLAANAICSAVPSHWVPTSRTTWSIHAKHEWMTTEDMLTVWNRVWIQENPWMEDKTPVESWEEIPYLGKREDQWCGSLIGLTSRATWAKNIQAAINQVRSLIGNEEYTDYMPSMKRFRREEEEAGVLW

[2] = Luminescence Cell-Based Dose Response HTS to Identify Inhibitors of 5'UTR Stem-Loop Driven Prion Protein mRNA Translation in H4 Neuroglioblastoma Cells. [Related pubchem assays: 1827 (Project Summary), 1813 (Primary HTS)]; format: functional
[3] = inhibitors of SNCA 5'UTR-driven reporter translation, confirmation, H4 neuroglioma cells, luminescence (AID 1988); format: functional, cell-based
[4] = inhibitors of firefly luciferase expression or activity, dose response, H4 neuroglioma cells, luminescence (AID 1990); format: functional, cell-based
[5] = cytotoxicity toward NIH3T3 fibroblasts, dose response, counter-screen, cell-based, ATP luminescence, mouse fibroblasts (AID 2010); format: functional;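 note: cells exposed to compound for about 90 hours before reading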
[6] = inhibitors of intracellular T. cruzi replication, confirmation, NIH3T3 host cells, beta-gal luminescence (AID 2044); format: functional, cell-based;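 note: intracellular parasites grown in NIH/3T3 mouse fibroblasts as host cells; luminescent beta-galactosidase reporter signal from transgenic T. cruzi replicating inside host cells; inhibitors lower the luminescence signal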
[7] = molecular target: T3, High affinity choline transporter 1 (Homo sapiens, UniProt Q9GZV3); experiment: CHT inhibitors, dose response, cell-based, 5-point CRC, membrane potential dye (AID 504840); format: functional
T3 sequence (Q9GZV3 whole entry): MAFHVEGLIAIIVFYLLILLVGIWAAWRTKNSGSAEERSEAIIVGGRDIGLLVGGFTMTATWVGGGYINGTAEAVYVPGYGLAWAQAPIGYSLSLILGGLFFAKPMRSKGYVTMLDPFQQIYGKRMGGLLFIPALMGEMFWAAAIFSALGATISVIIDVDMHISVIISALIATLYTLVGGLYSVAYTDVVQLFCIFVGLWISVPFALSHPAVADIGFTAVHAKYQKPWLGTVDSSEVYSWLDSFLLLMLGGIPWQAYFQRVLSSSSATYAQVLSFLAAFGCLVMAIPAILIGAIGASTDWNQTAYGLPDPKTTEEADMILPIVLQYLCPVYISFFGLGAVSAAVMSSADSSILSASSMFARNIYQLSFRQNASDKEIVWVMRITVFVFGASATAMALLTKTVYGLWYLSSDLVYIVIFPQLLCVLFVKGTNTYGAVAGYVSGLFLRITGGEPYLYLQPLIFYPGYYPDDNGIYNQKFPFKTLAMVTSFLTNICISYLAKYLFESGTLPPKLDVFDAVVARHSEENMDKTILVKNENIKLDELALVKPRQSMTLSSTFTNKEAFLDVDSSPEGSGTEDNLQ

cells = format: functional
[8] = HepG2 cell cytotoxicity, dose response, cytotoxicity control for Shn3 inhibitor project, CellTiter-Glo, cherry-picked (AID 624134); format: functional, cell-based
[9] = control 3'UTR Renilla luciferase suppression, dose response, counter-screen for Shn3 inhibitor project, cell-based, Clone20-Shn3RL, cherry-picked (AID 624133); format: functional
[10] = Shn3 3'UTR reporter inhibitors, dose response, cell-based, Clone20 osteoblasts, firefly luciferase, cherry-picked (AID 624132); format: functional;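 note: firefly luciferase luminescence from reporter carrying the Shn3 3'UTR in osteoblasts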
Streptococcus = experiment: Group A Streptococcus viability loss, dose response, counter-screen for streptokinase expression inhibitor project, luminescence, BacTiterGlo (AID 1915); format: functional, organism-based;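 note: potency for reduction of bacterial viability or growth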
[11] = tested on: Streptococcus sp. 'group A'; experiment: growth inhibition of control SK(-) GAS strain, dose response, counter-screen for streptokinase expression inhibitor project, luminescence, kanamycin, BacTiterGlo, confirmation (AID 1900); format: functional, organism-based
[12] = molecular target: T4, RNA-binding protein pos-1 (Caenorhabditis elegans, UniProt G5EF15); experiment: inhibitors of POS-1/mex-3 RNA binding, dose response, biochemical, fluorescence polarization (AID 1964);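 note: purified POS-1 fused to maltose binding protein made in E. coli; potency of compounds blocking POS-1 binding to fluorescent RNA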
T4 sequence (G5EF15 whole entry): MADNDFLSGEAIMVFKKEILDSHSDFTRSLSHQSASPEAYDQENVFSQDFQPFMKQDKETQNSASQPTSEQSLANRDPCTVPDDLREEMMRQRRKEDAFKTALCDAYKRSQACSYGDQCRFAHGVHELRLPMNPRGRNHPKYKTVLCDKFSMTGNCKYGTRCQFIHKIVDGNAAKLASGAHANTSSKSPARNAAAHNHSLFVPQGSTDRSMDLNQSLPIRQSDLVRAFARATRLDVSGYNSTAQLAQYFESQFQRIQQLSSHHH

[13] = molecular target: T5, Zinc finger protein mex-5 (Caenorhabditis elegans, UniProt Q9XUB2); experiment: MEX-5/TCR-2 RNA interaction inhibitors, dose response, biochemical, C. elegans, fluorescence polarization (AID 1960)
T5 sequence (Q9XUB2 whole entry): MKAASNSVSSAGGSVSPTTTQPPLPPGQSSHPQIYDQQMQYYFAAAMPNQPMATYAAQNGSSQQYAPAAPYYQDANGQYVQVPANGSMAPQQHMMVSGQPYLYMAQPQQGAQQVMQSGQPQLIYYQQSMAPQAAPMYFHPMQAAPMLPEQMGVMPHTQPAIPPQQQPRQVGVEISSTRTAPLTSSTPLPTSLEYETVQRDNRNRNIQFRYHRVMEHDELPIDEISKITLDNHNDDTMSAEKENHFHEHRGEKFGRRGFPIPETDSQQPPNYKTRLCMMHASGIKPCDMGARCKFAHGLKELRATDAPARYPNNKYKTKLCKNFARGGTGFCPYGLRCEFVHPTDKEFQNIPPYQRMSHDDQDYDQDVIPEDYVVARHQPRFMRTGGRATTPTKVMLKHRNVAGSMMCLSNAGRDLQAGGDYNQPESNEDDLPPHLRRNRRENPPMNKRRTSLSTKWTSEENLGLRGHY

[14] = molecular target: Luciferin 4-monooxygenase (Photinus pyralis, UniProt P08659); experiment: firefly luciferase enzyme inhibitors, dose response, biochemical, luminescence (AID 1891)
Chain of Luciferin 4-monooxygenase (P08659 whole entry): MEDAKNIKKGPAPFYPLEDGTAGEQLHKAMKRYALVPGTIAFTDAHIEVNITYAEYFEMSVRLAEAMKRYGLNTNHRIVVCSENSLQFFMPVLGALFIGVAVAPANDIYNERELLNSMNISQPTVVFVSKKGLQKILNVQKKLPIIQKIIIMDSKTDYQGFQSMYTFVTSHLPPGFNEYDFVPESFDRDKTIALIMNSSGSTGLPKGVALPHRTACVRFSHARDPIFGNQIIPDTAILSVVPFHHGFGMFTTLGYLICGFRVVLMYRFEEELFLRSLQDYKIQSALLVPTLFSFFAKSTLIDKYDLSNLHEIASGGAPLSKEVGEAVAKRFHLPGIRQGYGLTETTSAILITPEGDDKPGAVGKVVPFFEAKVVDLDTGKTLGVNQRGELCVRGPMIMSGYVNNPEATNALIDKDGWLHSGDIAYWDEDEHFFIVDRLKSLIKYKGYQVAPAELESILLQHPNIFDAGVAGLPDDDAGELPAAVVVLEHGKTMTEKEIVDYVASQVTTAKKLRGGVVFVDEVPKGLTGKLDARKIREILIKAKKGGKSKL

[15] = Luminescence Cell-Based Dose Confirmation HTS to Identify Inhibitors of Platelet Dense Granule Release. [Related pubchem assays: 1663 (Primary HTS), 1678 (Summary of Project)]; format: functional

O=C1NC(=O)C(=Cc2cc3c(cc2[N+](=O)[O-])OCO3)C(=O)N1
EC50 (Protein RecA): > 380 µM (inconclusive) | AC50 [1]: > 380 µM (inactive) | IC50 (Genome polyprotein): 21.4 µM (active)

CC#CC(=O)N1CCC(CCc2ccccc2)(C(=O)OCC)CC1
EC50 [2]: > 120 µM (not active)

CC(C)c1nnc(NC(=O)CC(=O)Nc2ccccc2C(=O)O)s1
EC50 [3]: 11.3 µM (active) | EC50 [4]: 16.3 µM (active) | EC50 [2]: 14.6 µM (active)

O=C(Nc1ccc(S(=O)(=O)N2CCOCC2)cc1)c1ccc([N+](=O)[O-])cc1Cl
EC50 [5]: > 30 µM (not active) | EC50 [6]: 0.867 µM (active) | IC50 [7]: 15.1 µM (active)

c1ccc(Sc2ccccc2CN2CCCC2)cc1
EC50 [3]: > 120 µM (not active) | EC50 [4]: > 120 µM (not active) | EC50 [2]: > 120 µM (not active)

O=C(COc1ccccc1)Nc1nnc(-c2ccc(Cl)cc2)o1
IC50 (cells): 34.6 µM (active)

Nc1nonc1C(=O)NCCNCc1cc(Br)ccc1OCc1ccc(F)cc1
AC50 [8]: 38.6 µM (active) | AC50 [9]: 8.32 µM (active) | AC50 [10]: 3.74 µM (active)

Clc1ccc(C[n+]2cc(-c3ccccc3)n3c2CCCCC3)c(Cl)c1
EC50 [5]: 15.3 µM (active) | AC50 [8]: > 70 µM (inactive) | AC50 [9]: 1.21 µM (active) | EC50 [6]: 0.273 µM (active) | AC50 [10]: 1.2 µM (active)

COc1ccc(NC(=O)c2cc(Cl)ccc2Cl)c([N+](=O)[O-])c1
EC50 [3]: > 120 µM (not active) | EC50 [4]: > 120 µM (not active) | EC50 [2]: > 120 µM (not active)

Cc1ccc(-c2cc(-c3ccc(F)cc3)nc(N)c2C#N)o1
EC50 [3]: 49.7 µM (active) | EC50 [4]: 17.1 µM (active) | EC50 [2]: > 120 µM (not active)

CC1=NN(C(N)=S)C(=O)C1N=Nc1c(Br)cc(Br)cc1Br (centres undefined)
EC50 (Streptococcus): 8.6 µM (active) | IC50 [7]: 12 µM (active) | EC50 [11]: 2.76 µM (active) | IC50 (Genome polyprotein): 43.5 µM (active)

CCOC(=O)c1ccc(NC(=O)CSc2nnc(-c3cccs3)n2CC)cc1
EC50 [3]: > 120 µM (not active) | EC50 [4]: > 120 µM (not active) | EC50 [2]: > 120 µM (not active)

Cc1ccc(OC(=O)CCS(=O)(=O)c2ccc(C)cc2)cc1
IC50 (cells): < 0.1 µM (active)

O=C(NCCC1=CCCCC1)C1CCC(CNc2nc(S)nc3ccccc23)CC1 (centres undefined)
EC50 [3]: > 120 µM (not active) | EC50 [4]: 9.48 µM (active) | EC50 [2]: > 120 µM (not active)

CC1CCC(NC(=O)c2ccc(NC(=O)CC3SC(N4CCCC4)=NC3=O)cc2)CC1 (centres undefined)
IC50 [7]: 14.5 µM (active)

CCCCCn1c(=O)c(C(=O)OCC)c(Cl)c2ccccc21
IC50 [7]: 19.1 µM (active)

COC(=O)c1sccc1NC(=O)C1CC2CCC1C2 (centres undefined)
EC50 [3]: > 120 µM (not active) | EC50 [4]: > 120 µM (not active) | EC50 [2]: > 120 µM (not active)

CCC(=O)c1ccc(OCc2ccc(C(=O)OC)cc2)cc1
IC50 (cells): 38.8 µM (active)

Cc1c(C(=O)Nc2ccc(S(=O)(=O)NCC3CCCO3)cc2)cccc1[N+](=O)[O-] (centres undefined)
IC50 [7]: 14.5 µM (active)

O=C(NNC(=O)c1ccccc1O)c1ccc(S(=O)(=O)Nc2ccccc2F)cc1
EC50 [12]: > 300 µM (not active) | EC50 [13]: > 300 µM (inconclusive)

CC1=NN(C(=O)c2ccccc2F)C(O)(c2ccc(Cl)cc2)C1 (centres undefined)
IC50 (cells): > 50 µM (active)

Cc1ccccc1-n1nc2c(c1NC(=O)C1CCCC1)CS(=O)(=O)C2
EC50 [3]: > 120 µM (not active) | EC50 [4]: > 120 µM (not active) | EC50 [2]: > 120 µM (not active)

Cc1cc(C)n2nc(N)c(N=Nc3ccccc3)c2n1
EC50 [14]: > 112 µM (not active) | IC50 (cells): 5.78 µM (active) | EC50 [15]: > 112 µM (not active)

CC(C)n1c(/C=C/[C@H](O)C[C@H](O)CC(=O)O)c(-c2ccc(F)cc2)c2ccccc21
AC50 [8]: > 70 µM (inactive) | AC50 [9]: 5.95 µM (active) | AC50 [10]: 1.42 µM (active)

O=C(C/C=N\OCc1ccc([N+](=O)[O-])cc1)Nc1ccc(F)cc1F
IC50 (cells): 33 µM (active)
